The text below walks through data of patent EP4772510A2, “BENZAZEPINONE COMPOUND AND USE THEREOF” (HANGZHOU BIO-SINCERITY PHARMA-TECHCO., LTD., priority 2023, dated 2025).

The test system of one experiment is U937 cells. Briefly: Inhibition of TNF-α-induced necroptosis of U937 cells (CCK-8 assay). The format is cell-based, human. The following applies: Homo sapiens, U-937, TNF-α 20 ng/mL + BV6 2 µM + Z-VAD-FMK 20 µM, 18 h. From the text:
Example 56: Inhibition of TNF-α-Induced Necroptosis of U937 Cells by Compounds
• 1. Experimental reagents: RPMI-1640 culture medium, fetal bovine serum, penicillin-streptomycin, TNF-α (MCE, HY-P7058), BV6 (MCE, HY-16701), Z-VAD-FMK (MCE, HY-16658B), and CCK-8 (Dalian Meilun Biotech Co., Ltd., MA0218). • 2. Experimental instruments: medical low-temperature freezer (Thermo Fisher scientific, 902-ULTS), electrically heated thermostatic water bath (Shanghai Bluepard Instruments Co., Ltd., CD-420), low-speed centrifuge (ANHUI USTC Zonkia Scientific Instruments Co., Ltd, SC-3616), carbon dioxide incubator (Shanghai Bluepard Instruments Co., Ltd., BPN-150CH(UV)), inverted microscope (Olympus, CKX53), multi-functional microplate reader (Thermo Tecan, SPARK), class-II biosafety cabinet (AIRTECH, BSC-1304IIA2), and desktop cell counter (Thermo Fisher Scientific, Countess II). • 3. Cell culturing: U937 cells (human histiocytic lymphoma cells) were cultured in an RPMI-1640 culture solution containing 10% fetal bovine serum and 1% penicillin-streptomycin solution in a 5% CO2 incubator at 37 °C and a saturated humidity. The cell culture flask was vertically placed in the incubator. A T25 culture flask was used as an example, the culture solution in the flask was 6-8 mL, and culture medium changes and cell passaging were performed 3-4 times a week. • 4. […] The culture medium was taken out from the freezer and transferred to the water bath for pre-heating. An appropriate amount of culture medium was then taken for use. • (2) The cell suspension was transferred to a 15 mL sterile centrifuge tube and centrifuged at 850 rpm for 4 min to collect U937 cells. • (3) The supernatant was carefully discarded, and an appropriate amount of culture medium was added. The mixture was gently pipetted using a pipette to homogenize the cells and thus prepare a single-cell suspension, and the cells were counted. • (4) The cells were diluted to 4 × 10^5/mL and seeded into a 96-well plate at 90 µL/well, such that the cell density in the 96-well plate was 3.6 × 10 ^4 cells/well. The cells were incubated in a 5% CO 2 incubator at 37 °C and a saturated humidity for 6 h, followed by the addition of compounds. • 4.2 Dilution and addition of compounds: • (1) TNF-α was dissolved in PBS to obtain a 100 µg/mL stock solution and aliquoted; Z-VAD-FMK was dissolved in DMSO to obtain a 10 mM stock solution and aliquoted; BV6 was dissolved in DMSO to obtain a 10 mM stock solution and aliquoted; GSK2982772 was dissolved in DMSO to obtain a 10 mM stock solution and aliquoted. One aliquot of each stock solution was stored at -20 °C for immediate use, while the remaining aliquots were stored at - 80 °C and used within their shelf life. • (2) RPMI-1640 culture medium containing TNF-α, BV6, and Z-VAD-FMK was prepared (5 µL/per well), such that the final concentrations of TNF-α, BV6, and Z-VAD-FMK were 20 ng/mL, 2 µM, and 20 µM, respectively. • (3) Each target compound was three-fold diluted with a culture medium to 8 concentration gradients, with each concentration set in duplicate (5 µL/well). The final concentrations of each target compound were 1000.00/333.33/111.11/37.04/12.35/4.12/1.37/0.46 nM. • (4) The 96-well plate containing 90 µL of cell suspension was taken out from an incubator, and a positive control group, test compound groups, and a DMSO (5‰) control group were set. 5 µL of RPMI-1640 culture solution containing TNF-α, BV6, and Z-VAD-FMK and 5 µL of culture solution containing the test compound were added to the positive control group and the test compound groups. After compound addition, the mixtures were cultured for 18 h, followed by the CCK-8 assay. • (5) The 96-well plate was taken out, and the CCK-8 reagent was carefully added at 10 µL/well. The mixtures were incubated at 37 °C for 2-4 h, and the absorbance value was measured at a wavelength of 450 nm. • 5. Evaluation of inhibitory activity of compounds on TNF-α-induced necroptosis of U937 [formula] […]
Background: Tetrazolium dyes change colour on reduction, which living cells bring about.

For the next experiment, the system named is HT-29 cells. The experiment is described as follows: Inhibition of TNF-α-induced necroptosis of HT-29 cells (SRB method). Type of experiment: cell-based, human. The settings on record: Homo sapiens, HT-29, TNF-α 20 ng/mL + BV6 2 µM + Z-VAD-FMK 20 µM, 18 h. From the text:
Example 57: Inhibition of TNF-α-Induced Necroptosis of HT-29 Cells by Compounds
• 1. Experimental reagents: McCOY's 5A culture medium, fetal bovine serum, penicillin-streptomycin, trypsin, PBS, TNF-α (MCE, HY-P7058), BV6 (MCE, HY-16701), Z-VAD-FMK (MCE, HY-16658B), SRB kit (Shanghai BestBio Biotechnology Co., Ltd., BB-4208-500T). • 2. Experimental instruments: medical low-temperature freezer (Thermo Fisher scientific, 902-ULTS), electrically heated thermostatic water bath (Shanghai Bluepard Instruments Co., Ltd., CD-420), low-speed centrifuge (ANHUI USTC Zonkia Scientific Instruments Co., Ltd, SC-3616), carbon dioxide incubator (Shanghai Bluepard Instruments Co., Ltd., BPN-150CH(UV)), inverted microscope (Olympus, CKX53), multi-functional microplate reader (Thermo Tecan, SPARK), class-II biosafety cabinet (AIRTECH, BSC-1304IIA2), and desktop cell counter (Thermo Fisher Scientific, Countess II). • 3. Cell culturing: HT-29 cells (human colon cancer cells) were cultured in a McCOY's 5A culture solution containing 10% fetal bovine serum and 1% penicillin-streptomycin solution in a 5% CO 2 at 37 °C and a saturated humidity, and culture medium changes and cell passaging were performed 3-4 times a week. • 4. […] The culture medium, trypsin, etc., were taken out from the freezer and transferred to the water bath for pre-heating. An appropriate amount of these substances was then taken for use. • (2) The old culture medium in the flask was aspirated using a sterile pipette and discarded, and the cells were washed 3 times with PBS. 1 mL of trypsin (25 cm^2 cell culture flask) was added into the flask, and the flask was gently shaken to allow the trypsin to cover all the cell surfaces. Digestion was performed in an incubator at 37 °C. After 2 min of digestion, the flask was placed under a microscope for observation. […] The mixture was gently pipetted using a pipette to homogenize the cells and thus prepare a single-cell suspension, and the cells were counted. • (5) The cells were diluted to 3 × 10^5/mL and seeded into a 96-well plate at 100 µL/well, such that there were 3 × 10^4 cells per well in the 96-well plate. The cells were incubated in a 5% CO2 incubator at 37 °C and a saturated humidity for 24 h, followed by the addition of compounds. • 4.2 Dilution and addition of compounds: • (1) TNF-α was dissolved in PBS to obtain a 100 µg/mL stock solution and aliquoted; Z-VAD-FMK was dissolved in DMSO to obtain a 10 mM stock solution and aliquoted; BV6 was dissolved in DMSO to obtain a 10 mM stock solution and aliquoted; GSK2982772 was dissolved in DMSO to obtain a 10 mM stock solution and aliquoted. One aliquot of each stock solution was stored at -20 °C for immediate use, while the remaining aliquots were stored at - 80 °C and used within their shelf life. • (2) McCOY's 5A culture solution containing TNF-α, BV6, and Z-VAD-FMK was prepared. For the positive control group and the test compound groups, the McCOY's 5A culture solution was added at 90 µL/well, and 10 µL of the culture medium containing the test compound was also added, thus making the final concentrations of TNF-α, BV6, and Z-VAD-FMK be 20 ng/mL, 2 µM, and 20 µM, respectively. For the DMSO (5‰) control group, 90 µL of the McCOY's 5A complete culture solution was added, and then 10 µL of DMSO was added, thus making the final concentration 5‰. • (3) Each target compound was three-fold diluted with a culture medium to 8 concentration gradients, with each concentration set in duplicate (10 µL/well). The final concentrations of each target compound were 1000.00/333.33/111.11/37.04/12.35/4.12/1.37/0.46 nM. • (4) The 96-well plate cultured for 24 h was taken out from the incubator, and the culture medium in the 96-well plate was carefully aspirated and discarded. A positive control group, test compound groups, and a DMSO (5‰) control group were set, and 10 µL of the corresponding compound was added to each group. […]
For orientation: The SRB assay estimates cell density from bound dye.

The structures appear in SMILES notation.

As usually defined, the EC50 is the concentration at which the effect is half-maximal.

With `O=C(NC1CCc2cc(C#Cc3ccncc3)cc3c2N(CC3)C1=O)c1nnc(Cc2c(F)cccc2F)[nH]1` (stereo not shown) [Compound I-12, 5-(2,6-difluorobenzyl)-N-(4-oxo-9-(pyridin-4-ylethynyl)-1,2,3,4,6,7-hexahydroazepino[3,2,1-hi]indol-3-yl)-4H-1,2,4-triazole-3-carboxamide], the EC50 in the experiment with U937 cells and in the experiment on HT-29 cells was 10 to 100 nM each time.
For the molecule `O=C(NC1CCc2cc(C#Cc3ccncc3)cc3c2N(CC3)C1=O)c1nnc(Cc2c(Cl)cccc2Cl)[nH]1` (stereo not shown) [Compound I-13, 5-(2,6-dichlorobenzyl)-N-(4-oxo-9-(pyridin-4-ylethynyl)-1,2,3,4,6,7-hexahydroazepino[3,2,1-hi]indol-3-yl)-4H-1,2,4-triazole-3-carboxamide], the EC50 in the experiment on U937 cells and with HT-29 cells was more than 200 nM each time.
Consider `Cn1cc(C#Cc2cc3c4c(c2)CCN4C(=O)C(NC(=O)c2cccc(Oc4ccccc4)n2)CC3)cn1` (stereo not shown) [Compound V-1, N-(9-((1-methyl-1H-pyrazol-4-yl)ethynyl)-4-oxo-1,2,3,4,6,7-hexahydroazepino[3,2,1-hi]indol-3-yl)-6-phenoxypicolinamide], for which the 50% effective concentration (EC50) in the experiment on U937 cells and in the experiment with HT-29 cells was more than 200 nM in each case.
For the molecule `Cn1cc(C#Cc2cc3c4c(c2)CCN4C(=O)C(NC(=O)c2ccc(Oc4ccccc4)cn2)CC3)cn1` (stereo not shown) [Compound V-2, N-(9-((1-methyl-1H-pyrazol-4-yl)ethynyl)-4-oxo-1,2,3,4,6,7-hexahydroazepino[3,2,1-hi]indol-3-yl)-5-phenoxypicolinamide], the EC50 in the experiment with U937 cells and in the experiment on HT-29 cells was more than 200 nM in each case.
Consider `O=C(NC1CCc2ccc(C#Cc3ccccn3)c3c2N(CC3)C1=O)c1nnc(Cc2ccccc2)[nH]1` (stereo not shown) [II-1, 5-benzyl-N-(4-oxo-8-(pyridin-2-ylethynyl)-1,2,3,4,6,7-hexahydroazepino[3,2,1-hi]indol-3-yl)-4H-1,2,4-triazole-3-carboxamide], for which the EC50 in the experiment on U937 cells and in the experiment on HT-29 cells was 10 to 100 nM throughout.
On to `O=C(NC1CCc2ccc(C#Cc3cccnc3)c3c2N(CC3)C1=O)c1nnc(Cc2ccccc2)[nH]1` (stereo not shown) [II-2, 5-benzyl-N-(4-oxo-8-(pyridin-3-ylethynyl)-1,2,3,4,6,7-hexahydroazepino[3,2,1-hi]indol-3-yl)-4H-1,2,4-triazole-3-carboxamide], for which the concentration giving a half-maximal response (EC50) in the experiment with U937 cells lay within 100 to 200 nM; in the experiment with HT-29 cells, 10 to 100 nM.
As for `O=C(NC1CCc2ccc(C#CC3CC3)c3c2N(CC3)C1=O)c1nnc(Cc2ccccc2)[nH]1` (stereo not shown) [II-3, 5-benzyl-N-(8-(cyclopropylethynyl)-4-oxo-1,2,3,4,6,7-hexahydroazepino[3,2,1-hi]indol-3-yl)-4H-1,2,4-triazole-3-carboxamide], the concentration for a half-maximal effect (EC50) in the experiment with U937 cells was more than 200 nM; in the experiment with HT-29 cells it was 100 to 200 nM.
Consider `O=C(NC1CCc2ccc(C#Cc3ccncc3)c3c2N(CC3)C1=O)c1nnc(Cc2ccccc2)[nH]1` (stereo not shown) [II-4, 5-benzyl-N-(4-oxo-8-(pyridin-4-ylethynyl)-1,2,3,4,6,7-hexahydroazepino[3,2,1-hi]indol-3-yl)-4H-1,2,4-triazole-3-carboxamide], for which the EC50 with U937 cells was 10 to 100 nM; in the experiment with HT-29 cells, 100 to 200 nM.
For `O=C(NC1CCc2cc(C#Cc3ccncc3)cc3c2N(CC3)C1=O)c1ncn(Cc2c(F)cccc2F)n1` (stereo not shown) [III-2, 1-(2,6-difluorobenzyl)-N-(4-oxo-9-(pyridin-4-ylethynyl)-1,2,3,4,6,7-hexahydroazepino[3,2,1-hi]indol-3-yl)-1H-1,2,4-triazole-3-carboxamide], the results for the concentration for a half-maximal effect (EC50) in the experiment on U937 cells and in the experiment on HT-29 cells were less than 5 nM and 10 to 100 nM, respectively.
For `O=C(NC1CCc2cc(C#Cc3ccncc3)cc3c2N(CC3)C1=O)c1ncn(Cc2ccccc2)n1` (stereo not shown) [III-3, 1-benzyl-N-(4-oxo-9-(pyridin-4-ylethynyl)-1,2,3,4,6,7-hexahydroazepino[3,2,1-hi]indol-3-yl)-1H-1,2,4-triazole-3-carboxamide], the EC50 with U937 cells and in the experiment with HT-29 cells was 10 to 100 nM throughout.
For `CC(C)(O)C#Cc1cc2c3c(c1)CCN3C(=O)C(NC(=O)c1ncn(Cc3c(F)cccc3F)n1)CC2` (stereo not shown) [III-4, 1-(2,6-difluorobenzyl)-N-(9-(3-hydroxy-3-methylbut-1-yn-1-yl)-4-oxo-1,2,3,4,6,7-hexahydroazepino[3,2,1-hi]indol-3-yl)-1H-1,2,4-triazole-3-carboxamide], the EC50 in the experiment on U937 cells and with HT-29 cells was less than 5 nM in each case.
